According to US11040028B2, “Penicinotam derivative, preparation method and use thereof” (OCEAN UNIVERSITY OF CHINA, priority 2017, dated 2021):

Columns and labels:
Format in all cases: cell-based
[1] = tested on: mouse macrophages (RAW264.7); test: Lipopolysaccharide-induced NO secretion in macrophages (Griess); conditions: Mus musculus, RAW264.7, 24 h, RAW264.7, LPS 1 μg/ml, a/b isomers given as first/second symbol, read-out: IC50 (μM), inhibition of lipopolysaccharide-induced NO secretion in macrophages
Outline: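 Absorbance at 548 nm after Griess reagent addition to culture supernatant gave NO content; inhibition rate was derived relative to blank control. Cells were mouse RAW264.7 macrophages exposed to compounds and 1 μg/ml LPS for 24 hours.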

[2] = tested on: cardiac fibroblast RAT-iCell-C002; test: Anti-fibrosis activity test: inhibition of proliferation of cardiac fibroblast RAT-iCell-C002 (CCK-8); conditions: Cardiac fibroblast, 48 h
Outline: (§1)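 Read-out: absorbance at 450 nm after 2 h with CCK-8, following 48 h of compound exposure of adhered cells (2×10^4 cells/mL, 24 h attachment, 37° C, 5% CO2). Proliferation inhibition was taken relative to the blank control, and IC50 values were calculated from it.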

BHK-21 cells = test: Anti-fibrosis activity test: inhibition of BHK-21 cell proliferation (CCK-8); conditions: Mesocricetus auratus, BHK-21, 48 h
Outline: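 BHK-21 cells seeded at 2×10^4 cells/mL, allowed to adhere 24 h at 37° C, 5% CO2, then exposed to compounds at graded concentrations in triplicate for 48 h. CCK-8 added for 2 h and absorbance read at 450 nm; inhibition rate taken as (1−Ai/Ao)×100% and IC50 fitted.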

[3] = tested on: human lung fibroblasts HFL1; test: Anti-fibrosis activity test: inhibition of proliferation of human lung fibroblasts HFL1 (CCK-8); conditions: Homo sapiens, HFL1, 48 h
Outline: as §1

[4] = tested on: human embryonic lung fibroblast IMR-90; test: Anti-fibrosis activity test: inhibition of proliferation of human embryonic lung fibroblast IMR-90 (CCK-8)
Outline: as §1

[5] = tested on: human fibrosarcoma cells HT-1080; test: Anti-fibrosis activity test: inhibition of proliferation of human fibrosarcoma cells HT-1080 (CCK-8); conditions: Homo sapiens, HT-1080, 48 h
Outline: as §1

[6] = tested on: human hepatic stellate cells LX-2; test: Anti-fibrosis activity test: inhibition of proliferation of human hepatic stellate cells LX-2 (CCK-8); conditions: Homo sapiens, 48 h
Outline: as §1

[7] = tested on: human dermal fibroblasts CCC-ESF-1; test: Anti-fibrosis activity test: inhibition of proliferation of human dermal fibroblasts CCC-ESF-1 (CCK-8); conditions: Fibroblast
Outline: as §1

[8] = cardiac fibroblast RAT-iCell-C002, CCK-8, 48 hours
[9] = CCK-8, 48 hours after administration
[10] = human lung fibroblasts HFL1, CCK-8, 48 hours
[11] = human embryonic lung fibroblast IMR-90, CCK-8, 48 hours
[12] = human fibrosarcoma cells HT-1080, CCK-8, 48 hours
[13] = human hepatic stellate cells LX-2, CCK-8, 48 hours
[14] = human dermal fibroblasts CCC-ESF-1, CCK-8, 48 hours
[15] = Homo sapiens, IMR-90 cells, 48 h, CCK-8
[16] = Homo sapiens, CCC-ESF-1 cells, 48 h, CCK-8

Compound	IC50 [1]	IC50 [2, 8]	IC50 (BHK-21 cells; [9])	IC50 [3, 10]	IC50 [4, 11]	IC50 [5, 12]	IC50 [6, 13]	IC50 [7, 14]	IC50 ([2]; RAT-iCell-C002 cells, CCK-8)	IC50 (BHK-21 cells; 48 h, CCK-8)	IC50 ([3]; HFL1 cells, 48 h, CCK-8)	IC50 [4, 15]	IC50 ([5]; HT-1080 cells, 48 h, CCK-8)	IC50 ([6]; LX-2, 48 h, LX-2 cells, CCK-8)	IC50 [7, 16]
O=C1c2c(nc3c(F)c(N4CCNCC4)ccc3c2OCc2ccc(Cl)cc2)-c2cccn21 [Compound 484b, 9-((4-chlorobenzyl)oxy)-5-fluoro-6-(piperazin-1-yl)-10H-pyrrolizino[1,2-b]quinolin-10-one]	1 to 10 µM	0.05 to 5 mM	0.05 to 5 mM	0.05 to 5 mM	0.05 to 5 mM	0.05 to 5 mM	0.05 to 5 mM	0.05 to 5 mM							
O=C1c2c(n(C(=O)c3ccco3)c3ccc(F)cc3c2=O)-c2cccn21 [Compound 150a, 7-Fluoro-4-(furan-2-carbonyl)-9H-pyrrolizino[1,2-b]quinoline-9,10(4H)-dione]	1 to 10 µM	0.05 to 5 mM	0.05 to 5 mM	0.05 to 5 mM	< 0.05 mM	0.05 to 5 mM	0.05 to 5 mM	0.05 to 5 mM							
O=C1c2nc3ccccc3c(OCCN3CCNCC3)c2-c2cccn21 [Compound 792b, 11-(2-(piperazin-1-yl)ethoxy)-5H-pyrrolizino[2,1-b]quinolin-5-one]	0.1 to 1 µM								0.05 to 5 mM	0.05 to 5 mM	0.05 to 5 mM	0.05 to 5 mM	0.05 to 5 mM	0.05 to 5 mM	< 0.05 mM
O=C1c2c(nc3cc(N4CCNCC4)c(OC(F)(F)F)cc3c2O)-c2cccn21 [Compound 409b, 9-hydroxy-6-(piperazin-1-yl)-7-(trifluoromethoxy)-10H-pyrrolizino[1,2-b]quinolin-10-one]	1 to 10 µM	0.05 to 5 mM	0.05 to 5 mM	0.05 to 5 mM	0.05 to 5 mM	0.05 to 5 mM	0.05 to 5 mM	0.05 to 5 mM							
O=C1c2c(nc3c(F)cccc3c2OCc2ccc(Cl)cc2)-c2cccn21 [Compound 453b, 9-((4-chlorobenzyl)oxy)-5-fluoro-10H-pyrrolizino[1,2-b]quinolin-10-one]	10 to 50 µM	0.05 to 5 mM	0.05 to 5 mM	0.05 to 5 mM	0.05 to 5 mM	0.05 to 5 mM	0.05 to 5 mM	0.05 to 5 mM							
O=C1c2c(n(CCO)c3cc(N4CCNCC4)c(F)cc3c2=O)-c2cccn21 [Compound 348a, 7-Fluoro-4-(2-hydroxyethyl)-6-(piperazin-1-yl)-9H-pyrrolizino[1,2-b]quinoline-9,10(4H)-dione]	1 to 10 µM	0.05 to 5 mM	20 to 100 mM	0.05 to 5 mM	0.05 to 5 mM	0.05 to 5 mM	0.05 to 5 mM	0.05 to 5 mM							
O=C1c2c(n(Cc3ccc(Cl)cc3)c3cccc(F)c3c2=O)-c2cccn21 [Compound 471a, 4-(4-Chlorobenzyl)-8-fluoro-9H-pyrrolizino[1,2-b]quinoline-9,10(4H)-dione]	0.1 to 1 µM	0.05 to 5 mM	0.05 to 5 mM	0.05 to 5 mM	0.05 to 5 mM	0.05 to 5 mM	< 0.05 mM	0.05 to 5 mM							
O=C(O)COc1c2c(nc3ccc(F)cc13)-c1cccn1C2=O [Compound 153b, 2-((7-fluoro-10-oxo-10H-pyrrolizino[1,2-b]quinolin-9-yl)oxy)acetic acid]	1 to 10 µM	0.05 to 5 mM	0.05 to 5 mM	0.05 to 5 mM	0.05 to 5 mM	0.05 to 5 mM	0.05 to 5 mM	0.05 to 5 mM							
O=C1c2nc3ccccc3c(OCCCCN3CCNCC3)c2-c2cccn21 [Compound 794b, 11-(4-(piperazin-1-yl)butoxy)-5H-pyrrolizino[2,1-b]quinolin-5-one]	1 to 10 µM								0.05 to 5 mM	0.05 to 5 mM	0.05 to 5 mM	0.05 to 5 mM	0.05 to 5 mM	0.05 to 5 mM	0.05 to 5 mM
Cc1ccc2c(=O)c3c([nH]c2c1)C(=O)n1cccc1-3 [Compound 778a, 8-Methyl-5H-pyrrolizino[2,1-b]quinoline-5,11(6H)-dione]	10 to 50 µM								0.05 to 5 mM	0.05 to 5 mM	0.05 to 5 mM	0.05 to 5 mM	0.05 to 5 mM	0.05 to 5 mM	0.05 to 5 mM
